Blank lines part the entries; values can stand above or below the compound they belong to.
Columns and labels:
HepG-2 = test: MTT anti-proliferative assay, HepG-2; format: cell-based; conditions: Homo sapiens, HepG2, HepG-2 hepatocellular carcinoma cells, read-out: Cytotoxicity IC50 HepG-2
Procedure: (§1) MTT procedure[41]^,[42] was applied for the determination of the anti-proliferative activity as described in Supplementary data.
(§2) 3- 4.2. Experimental of biological testing
(§3) 4.2.1. In vitro anti-proliferative activity
(§4) The in vitro antiproliferative activities of the synthesized compounds were evaluated against two human tumor cell lines: hepatocellular carcinoma (HepG2) and breast cancer (MCF-7) using MTT assay protocol The commercially available […]
(§5) The tested cell lines were purchased and dropped on the appropriate growth medium. The growth medium was supplemented with […] of streptomycin, 100 units/mL of penicillin and 10% of heat-inactivated fetal bovine serum in a humidified 5% (v/v) CO2 atmosphere at 37 ◦C.
(§6) Then the cells from the two cancer cell lines were seeded at the appropriate densities into 96-well microtiter plates. After incubation for 24 h, the growth medium of each cell was treated with graded concentrations (0.1, 10, 100 and 1000 μM) of the test compounds and incubated for three days. The viability of treated cells was determined using 3-[4,5-dimethylthiazole-2-yl]- 2,5-diphenyltetrazolium bromide (MTT) technique as cells were stained with 5% MTT solution and allowed to break down the dye into colored-insoluble formazan crystals for 4 h. The formazan crystals were dissolved in acidified isopropanol for 30 min with continuous shaking at room temperature. The colorimetric assay was measured and recorded at absorbance of 570 nm. The cell viability was expressed as percentage of control and the concentration that […]
(§7) 100% viability and group treated with a mixture of toxic compounds as 0% viability.
(IC50) were determined for each compound using Graph Pad Prism version 5 software by plotting of log C against % viability. […]

human VEGFR-2 = biological target: T1, human VEGFR-2 (Homo sapiens, UniProt P35968); test: In vitro VEGFR-2 enzyme inhibition assay (Human VEGFR-2 ELISA kit); format: biochemical
T1 construct: VEGFR-2 in HepG2 cell line; endogenous in cells; host or cells: HepG2
Procedure: as §2
4.2.1. In vitro anti-proliferative activity […]
The tested cell lines were purchased and dropped on the appropriate growth medium. The growth medium was supplemented with […] of streptomycin, 100 units/mL of penicillin and 10% of heat-inactivated fetal bovine serum in a humidified 5% (v/v) CO2 atmosphere at 37 ◦C. […]
(§8) 4.2.2. In vitro VEGFR-2 kinase assay
(§9) The synthesized compounds were estimated for their in vitro inhibition on human VEGFR-2 in HepG2 cell line; using ELISA kit. Firstly, a plate was used for the assay […]
nominated as a standard VEGFR-2 inhibitor. Both standard and samples were added to the wells and incubated overnight at 4 ◦C, then washed. The biotinylated antibody was supplemented and further incubated for 1 h at room temperature. The unreacted, liberated antibody was then washed; followed by addition of HRP-conjugated streptavidin and incubated for 45 min at room temperature. Wells were washed and a TMB substrate solution was added and kept at room temperature for 30 min. Finally, the stop solution was added, and the intensity of the color produced was measured at […]

HCT-116 = test: MTT anti-proliferative assay, HCT-116; format: cell-based; conditions: Homo sapiens, HCT-116 colorectal cancer cells, read-out: Cytotoxicity IC50 HCT-116
Procedure: [Worded in the source for another cell line; this cell line is reported under the same test.] as §1, §2, §3, §4, §5, §6, §7
(IC50) were determined for each compound using Graph Pad Prism version 5 software by plotting of log C against % viability.
as §8, §9
nominated as a standard VEGFR-2 inhibitor. Both standard and samples were added to the wells and incubated overnight at 4 ◦C, then washed. The biotinylated antibody was supplemented and further incubated for 1 h at room temperature. The unreacted, […]

HCT-116 cells [1] = test: Apoptosis assay, FITC-Annexin V/PI flow cytometry; format: cell-based, human; conditions: 15.70 μM, 48 h
Procedure: To determine whether apoptosis induction is involved in the anti-proliferative effects of the synthesised compounds, the apoptosis assay was performed for compound 7 against HCT-116 cells. The cells were incubated with either vehicle or compound 7 at a concentration of 15.70 μM for 48 h and then stained with FITC-Annexin V and propidium iodide (PI). The percentages of apoptotic HCT-116 cells were determined by flow cytometry analysis.
Flow cytometry cell apoptosis analysis was used to investigate the apoptotic effect of compound 7 as described in Supplementary data[46]^,[47]. […]
4.2.4. Flow cytometry analysis for apoptosis
Flow cytometry cell apoptosis analysis was used to investigate the apoptotic […]
AnnexinV-fluorescein isothiocyanate (Annexin V-FITC) is a protein that has high affinity to phosphatidyl serine PS, which can be detected by staining with Annexin V-(FITC) and counter staining with propidium iodide (PI). In such procedure, HepG2 cells were incubated together with the tested compound […] for 24 h. Then, the cells were centrifuged, collected by trypsin, washed with PBS two successive times, and suspended in […] of binding buffer. The double staining Annexin V-FITC […] were added to the cells and incubated in the dark for 5 min at room temperature. The stained cells were analyzed for flow cytometry using FACS caliber flow cytometer and apoptosis detection kit (BD Biosciences, San Jose, CA)

HCT-116 cells [2] = test: Cell cycle analysis by PI staining and flow cytometry; format: cell-based, human; conditions: 48 h
Procedure: Numerous anti-proliferative agents produce their effect by either arresting the cell growth at a particular point of the cell cycle or the induction of apoptosis, or by a combined effect. Taking compound 7 as a representative example of the tested compounds, its effect on the cell-cycle arrest of the HCT-116 cells for 48 h was evaluated by flow cytometry assay using the untreated HCT-116 as a control.
Cell cycle analysis was performed using propidium iodide (PI) staining and flow cytometry analysis for compound 7 as described in Supplementary data[44]^,[45]. […]
5% CO2. Cells were washed twice with phosphate buffer saline, then the centrifugation of cell pellets had been completed, followed by preservation with ice-cold 70% ethanol for 15 min. Pellets were collected again and incubated with propidium iodide (PI) staining solution. After incubation for one hour at room temperature, it was analyzed by flowcytometry on an FC500 cytometer (Beckman Coulter) and the cell cycle distributions were calculated. […]

TNF-α = test: qRT-PCR level of TNF-α in HCT-116 cells; format: cell-based, human; conditions: 24 h, compound 7 at 15.70 µM, compound 10 at […]
Procedure: (§10) Dexamethasone as a universal immunomodulatory drug was used as a reference molecule.
(§11) The effect of compounds 7 and 10 on the expression of TNF-α and IL-6 were determined using qRT-PCR as described in Supplementary data[48–50].
(§12) 4.2.5. Quantitative Real Time Reverse-Transcriptase PCR technique
(§13) The quantity of immunomodulatory proteins (TNF-α and IL-6) in control and compounds 7, 10 (at the IC50 concentration)-treated HepG2 cells was as sessed by qRT-PCR (reference). Total RNA from vehicle -treated control (0.01% DMSO) and […] HepG2 cells were extracted as -per the manufacturer instructi ons (RNeasy mini kit, Qiagen, Germany). After RNA extraction, cDNA was prepared using the Revert Aid First Strand cDNA Synthesis kit (Thermo Scientific, USA). Amplification of target cDNA for apoptosis markers and GAPDH [as a normalization (housekeeping) gene] was done using one-step RT-PCR SYBR® Green kit Master Mix (Bio‐Rad
(§14) Laboratories, USA) on Rotor -Gene Q real-time PCR thermal cycler instrument. cDNA (2 μl aliquots) was mixed with 1 μl of forward primer, 1 μl re verse primer, 10 μl master mixture, and the reaction volume was completed to 20 μl with nuclease -free water. All experiments were performed in tri plicates
(§15) 4- 4.3. Experimental of in silico studies

IL-6 = test: qRT-PCR level of IL-6 in HCT-116 cells; format: cell-based, human; conditions: 24 h, compound 7 at 15.70 µM, compound 10 at […]
Procedure: as §10, §11, §12, §13, §14, §15

T1 sequence (P35968 20-1356): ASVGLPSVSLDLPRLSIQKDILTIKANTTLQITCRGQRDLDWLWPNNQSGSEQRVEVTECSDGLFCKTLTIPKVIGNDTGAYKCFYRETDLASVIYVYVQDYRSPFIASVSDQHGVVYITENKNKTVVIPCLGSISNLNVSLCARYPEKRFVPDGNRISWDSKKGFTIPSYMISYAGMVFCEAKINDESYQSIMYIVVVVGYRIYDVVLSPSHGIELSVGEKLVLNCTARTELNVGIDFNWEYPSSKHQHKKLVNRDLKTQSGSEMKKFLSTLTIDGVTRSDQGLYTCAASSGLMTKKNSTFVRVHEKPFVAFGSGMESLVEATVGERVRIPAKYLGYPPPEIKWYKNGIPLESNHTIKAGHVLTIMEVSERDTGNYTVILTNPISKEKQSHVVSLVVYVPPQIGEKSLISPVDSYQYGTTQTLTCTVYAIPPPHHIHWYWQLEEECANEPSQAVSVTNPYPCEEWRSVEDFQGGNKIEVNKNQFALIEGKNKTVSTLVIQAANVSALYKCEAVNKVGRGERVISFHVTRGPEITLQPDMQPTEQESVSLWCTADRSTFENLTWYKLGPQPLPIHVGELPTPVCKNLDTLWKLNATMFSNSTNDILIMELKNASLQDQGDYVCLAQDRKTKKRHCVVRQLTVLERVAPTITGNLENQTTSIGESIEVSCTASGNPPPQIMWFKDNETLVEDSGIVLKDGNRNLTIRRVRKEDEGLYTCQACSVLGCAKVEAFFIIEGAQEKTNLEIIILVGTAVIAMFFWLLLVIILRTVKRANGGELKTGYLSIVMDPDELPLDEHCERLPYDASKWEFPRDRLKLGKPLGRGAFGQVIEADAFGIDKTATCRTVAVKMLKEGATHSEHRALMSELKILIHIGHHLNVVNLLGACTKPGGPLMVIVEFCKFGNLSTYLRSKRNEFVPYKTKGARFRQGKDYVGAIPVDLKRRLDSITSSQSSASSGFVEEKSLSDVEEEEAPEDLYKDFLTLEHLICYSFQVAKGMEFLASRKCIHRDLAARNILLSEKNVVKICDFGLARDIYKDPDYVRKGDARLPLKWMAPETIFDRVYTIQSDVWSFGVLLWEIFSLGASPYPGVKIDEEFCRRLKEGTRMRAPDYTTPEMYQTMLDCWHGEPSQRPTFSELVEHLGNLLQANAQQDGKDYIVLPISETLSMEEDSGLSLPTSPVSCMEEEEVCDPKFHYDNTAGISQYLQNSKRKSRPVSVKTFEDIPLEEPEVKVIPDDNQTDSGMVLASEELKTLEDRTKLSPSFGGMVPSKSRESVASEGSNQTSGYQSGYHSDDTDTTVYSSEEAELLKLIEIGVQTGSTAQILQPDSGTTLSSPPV

IC50 (human VEGFR-2): 0.0866 µM
SMILES: CC(=O)Nc1ccc(C(=O)N/N=C(\C)c2ccc(NC(=O)c3cccnc3)cc2)cc1 [Compound 11, (E)-N-(4–(1-(2–(4-Acetamidobenzoyl)hydrazono)ethyl)phenyl)nicotinamide]
IC50 (HepG-2): 21.6 ± 0.07 µM
IC50 (HCT-116): 20.17 ± 0.063 µM

IC50 (human VEGFR-2): 0.25 µM
SMILES: COc1cc(/C=N/NC(=O)c2ccc(NC(=O)c3cccnc3)cc2)cc(OC)c1OC [Compound 7, (E)-N-(4–(2-(3,4,5-Trimethoxybenzylidene)hydrazine-1-carbonyl)phenyl) nicotinamide]
Apoptosis Early (HCT-116 cells [1]): 2.75%
Apoptosis Late (HCT-116 cells [1]): 11.26%
Apoptosis Total (HCT-116 cells [1]): 15.74%
Increase in early-phase apoptotic cells versus control (HCT-116 cells [1]): 4 fold
Increase in late-phase apoptotic cells versus control (HCT-116 cells [1]): 6.5 folds
Necrosis (HCT-116 cells [1]): 1.73%
Total apoptosis induction versus control (HCT-116 cells [1]): 5 folds
IC50 (HepG-2): 15.5 ± 0.055 µM
Cell cycle distribution (%) % S (HCT-116 cells [2]): 26.92%
Cell cycle distribution (%) %G0-G1 (HCT-116 cells [2]): 41.92%
Cell cycle distribution (%) %G2-M (HCT-116 cells [2]): 31.16%
Cell cycle distribution (%) %Pre-G1 (HCT-116 cells [2]): 15.74%
IC50 (HCT-116): 15.7 ± 0.058 µM

IC50 (human VEGFR-2): 0.145 µM
SMILES: C/C(=N\NC(=O)c1ccccc1Cl)c1ccc(NC(=O)c2cccnc2)cc1 [Compound 10]

Second part, the compound before the results:

SMILES: O=C(N/N=C/c1cccc([N+](=O)[O-])c1)c1ccc(NC(=O)c2cccnc2)cc1 [Compound 6, (E)-N-(4–(2-(3-Nitrobenzylidene)hydrazine-1-carbonyl)phenyl)nicotinamide]
IC50 (HepG-2): 19.5 ± 0.063 µM
IC50 (human VEGFR-2): 0.292 µM
IC50 (HCT-116): 22.09 ± 0.064 µM

SMILES: C[C@@H]1C[C@H]2[C@@H]3CCC4=CC(=O)C=C[C@]4(C)[C@@]3(F)[C@@H](O)C[C@]2(C)[C@@]1(O)C(=O)CO [Dexamethasone, reference compound]
TNF-α (% inhibition) (TNF-α): 82.47%
TNF-α (% inhibition) (TNF-α; listed as dexamethasone): 82.4%
IL-6 (% inhibition) (IL-6): 93.15%
IL-6 (% inhibition) (IL-6; listed as dexamethasone): 93.1%

SMILES: CNC(=O)c1cc(Oc2ccc(NC(=O)Nc3ccc(Cl)c(C(F)(F)F)c3)cc2)ccn1 [Sorafenib, reference compound]
IC50 (HepG-2): 7.4 ± 0.253 µM
IC50 (HCT-116): 9.3 ± 0.201 µM

Source: paper PMC9466619, “Anti-cancer and immunomodulatory evaluation of new nicotinamide derivatives as potential VEGFR-2 inhibitors and apoptosis inducers: in vitro and in silico studies” (Journal of Enzyme Inhibition and Medicinal Chemistry, 2022)
